Test results published in publication PMC4737481 (Bioorganic & medicinal chemistry letters, 2015).
“Also recorded” adds a separate entry of the source. Where two headings read alike, the source gives them in different places.

Columns and labels:
[1] = biological target: T1, CYP3A4 (Homo sapiens, UniProt P08684); conditions: background statement on 1; cited from earlier work
[2] = ref not given, cited from earlier work
[3] = tested on: Chagas' disease; conditions: dog, oral 50 mg/kg BID for 14 days; cited from earlier work
[4] = tested on: P-glycoprotein; conditions: ref not given; cited from earlier work
[5] = tested on: MDCK cell monolayers; assay: permeability in MDCK cell monolayers; type: in vitro ADME; conditions: in words
[6] = biological target: T1, CYP3A4; assay: inhibition of CYP3A4 in vitro; type: in vitro ADME
[7] = stability to cultured liver microsomes; type: in vitro ADME; conditions: in words
[8] = tested on: T cruzi; conditions: T cruzi infected mice, 20 mg/kg BID (ip) for 27 days; cited from earlier work
[9] = tested on: T. cruzi parasites; conditions: cited from earlier work
[10] = in vivo PK studies in mice; conditions: PO 40 mg/kg
[11] = tested on: intracellular T. cruzi in C2C12 host cells; assay: antitrypanosomal high-content imaging assay; type: cell-based

T1 sequence (P08684 whole entry): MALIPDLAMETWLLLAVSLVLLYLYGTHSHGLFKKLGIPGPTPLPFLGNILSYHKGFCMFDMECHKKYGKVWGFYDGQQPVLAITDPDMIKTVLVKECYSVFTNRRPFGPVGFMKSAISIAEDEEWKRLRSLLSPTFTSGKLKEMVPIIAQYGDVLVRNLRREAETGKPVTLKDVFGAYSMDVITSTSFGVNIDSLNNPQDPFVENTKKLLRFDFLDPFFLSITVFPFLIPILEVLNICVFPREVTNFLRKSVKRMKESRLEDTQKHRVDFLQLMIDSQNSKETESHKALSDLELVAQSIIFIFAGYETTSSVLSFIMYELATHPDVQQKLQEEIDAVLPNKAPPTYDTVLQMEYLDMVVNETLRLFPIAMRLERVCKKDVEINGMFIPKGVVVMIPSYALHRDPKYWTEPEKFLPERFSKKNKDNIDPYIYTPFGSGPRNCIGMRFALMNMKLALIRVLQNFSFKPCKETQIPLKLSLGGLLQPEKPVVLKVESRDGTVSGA

SMILES: CN1CCN(C(=O)N[C@@H](Cc2ccccc2)C(=O)N[C@H](/C=C/S(=O)(=O)c2ccccc2)CCc2ccccc2)CC1 [Compound 1, K777]
- CYP3A4 inhibition (in words) [1]: irreversibly inhibits CYP3A4; also recorded: low μM regime
- dose-exposure pharmacokinetics [2]: nonlinear dose-exposure pharmacokinetics
- oral bioavailability ([2]; species not stated): 5–20%
- cardiac tissue damage [3]: partially protected animals from cardiac tissue damage
- parasitemia [3]: reduced parasitemia below levels detectable by hemocytometry
- P-glycoprotein substrate [4]: substrate for P-glycoprotein

SMILES: CCCCC(C(=O)COc1c(F)c(F)cc(F)c1F)n1cc([C@@](C)(NCc2ccc3ncccc3c2)C(C)C)nn1 (stereo partly drawn) [Compound 4]
- Permeability in an MDCK cell monolayer assay [5]: modest-to-low
- CYP3A4 inhibition (in words) [6]: low μM regime
- stability to cultured liver microsomes [7]: reasonable stability
- hematological cure (treated animals) [8]: 2/4
- activity against T. cruzi parasites in two different cell-based assays [9]: effective

SMILES: CCCCC(C(=O)COc1c(F)c(F)cc(F)c1F)n1cc([C@@](C)(NCc2ccc3ncccc3c2)C2CCCC2)nn1 (stereo partly drawn) [Compound 8]
- Exposure following PO dosing relative to compound 4 [10]: two-fold higher

SMILES: CCCCC(C(=O)COc1c(F)c(F)cc(F)c1F)n1cc([C@@](C)(NCc2ccn3nccc3n2)C(C)C)nn1 (stereo partly drawn) [Compound 20]
- IC50 ([11]; Trypanosoma cruzi, C2C12, read-out: T. cruzi IC50): 10 nM

SMILES: CCCCC(C(=O)COc1c(F)c(F)cc(F)c1F)n1cc([C@@](C)(NCc2ccn3nccc3n2)C2CCCC2)nn1 (stereo partly drawn) [Compound 21]
- improvement of in vitro potency relative to 4 ([11]; assay not specified): ~ 10 fold
- Exposure following PO dosing relative to compound 4 [10]: two-fold higher
